Experimental data published in US10292391B2, “Pesticidally active 1,2,4-triazole derivatives with sulphur containing substituents” (Syngenta Participations AG, priority 2015, dated 2019).

Experiments:
Format in all cases: in vivo
[1] = test system: Euschistus heros(Neotropical Brown Stink Bug); test: Activity against Euschistus heros, sprayed soybean leaf; conditions: 120 h, application rate of 200 ppm, N-2 nymphs, 5 days after infestation, read-out: effect in at least one of the two categories (mortality or growth inhibition)
Description: Soybean leaf on agar in 24-well microtiter plates were sprayed with aqueous test solutions prepared from 10,000 ppm DMSO stock solutions. After drying the leaf were infested with N-2 nymphs. The samples were assessed for mortality and growth inhibition in comparison to untreated samples 5 days after infestation.

[2] = test system: Spodoptera littoralis (Egyptian Cotton Leaf Worm); test: Activity against Spodoptera littoralis, sprayed cotton leaf discs; conditions: foliar, 72 h, application rate of 200 ppm, L1 larvae, 3 days after infestation, read-out: control (at least one of mortality, anti-feedant effect, and growth inhibition)
Description: Cotton leaf discs were placed on agar in 24-well microtiter plates and sprayed with aqueous test solutions prepared from 10,000 ppm DMSO stock solutions. After drying the leaf discs were infested with five L1 larvae. The samples were assessed for mortality, anti-feedant effect, and growth inhibition in comparison to untreated samples 3 days after infestation. Control of Spodoptera littoralis by a test sample is when at least one of mortality, anti-feedant effect, and growth inhibition is higher than the untreated sample.

[3] = test system: Plutella xylostella (Diamond Back Moth); test: Activity against Plutella xylostella, treated artificial diet; conditions: 120 h, application rate of 200 ppm, L2 larvae, 5 days after infestation, read-out: effect in at least one of the two categories (mortality or growth inhibition)
Description: (§1) 24-well microtiter plates with artificial diet were treated with aqueous test solutions prepared from 10,000 ppm DMSO stock solutions by pipetting. After drying, the plates were infested with L2 larvae (10 to 15 per well). The samples were assessed for mortality and growth inhibition in comparison to untreated samples 5 days after infestation.

[4] = test system: Bemisia tabaci (Cotton White Fly); test: Activity against Bemisia tabaci, sprayed cotton leaf discs; conditions: foliar, 144 h, application rate of 200 ppm, adult white flies, 6 days after incubation
Description: (§2) Cotton leaf discs were placed on agar in 24-well microtiter plates and sprayed with aqueous test solutions prepared from 10,000 ppm DMSO stock solutions. After drying the leaf discs were infested with adult white flies. The samples were checked for mortality 6 days after incubation.

[5] = test system: Spodoptera littoralis (Egyptian Cotton Leaf Worm); test: Activity against Spodoptera littoralis, systemic via lettuce grown on treated agar; conditions: 144 h, test rate of 12.5 ppm, root uptake by lettuce, 6 days after infestation, read-out: effect in at least one of the three categories (mortality, anti-feedancy, or growth inhibition)
Description: Test compounds were applied by pipette from 10,000 ppm DMSO stock solutions into 24-well plates and mixed with agar. Lettuce seeds were placed on the agar and the multi well plate was closed by another plate which contains also agar. After 7 days the roots have absorbed the compound and the lettuce has grown into the lid plate. The lettuce leafs were now cut off into the lid plate. Spodoptera eggs were pipetted through a plastic stencil on a humid gel blotting paper and the plate closed with it. The samples were assessed for mortality, anti-feedant effect and growth inhibition in comparison to untreated samples 6 days after infestation.

[6] = test system: Thrips tabaci (Onion Thrips); test: Activity against Thrips tabaci, sprayed sunflower leaf discs; conditions: foliar, 144 h, application rate of 200 ppm, thrips population of mixed ages, 6 days after infestation
Description: as §2, with “Sunflower” for “Cotton”, “a thrips population of mixed ages.” for “adult white flies.”, “assessed” for “checked”, “infestation.” for “incubation.”

[7] = test system: Diabrotica Balteata (Corn Root Worm); test: Activity against Diabrotica balteata, sprayed maize sprouts; conditions: 96 h, application rate of 200 ppm, L2 larvae, 4 days after infestation, read-out: effect in at least one of the two categories (mortality or growth inhibition)
Description: as §1, with “Maize sprouts, placed on an agar layer in 24-well” for “24-well”, “plates” for “plates with artificial diet”, “spraying.” for “pipetting.”, “(6” for “(10”, “10” for “15”, “4” for “5”

[8] = test system: Frankliniella occidentalis (Western Flower Thrips); test: Activity against Frankliniella occidentalis, sprayed sunflower leaf discs; conditions: foliar, 168 h, application rate of 200 ppm, population of mixed ages, 7 days after infestation
Description: Sunflower leaf discs were placed on agar in 24-well microtiter plates and sprayed with aqueous test solutions prepared from 10,000 DMSO stock solutions. After drying the leaf discs were infested with a Frankliniella population of mixed ages. The samples were assessed for mortality 7 days after infestation.

[9] = test system: Myzus persicae (Green Peach Aphid); test: Activity against Myzus persicae, sprayed sunflower leaf discs; conditions: foliar, 144 h, application rate of 200 ppm, aphid population of mixed ages, 6 days after infestation
Description: Sunflower leaf discs were placed on agar in a 24-well microtiter plate and sprayed with aqueous test solutions prepared from 10,000 ppm DMSO stock solutions. After drying, the leaf discs were infested with an aphid population of mixed ages. The samples were assessed for mortality 6 days after infestation.

[10] = test system: Myzus persicae (Green Peach Aphid); test: Activity against Myzus persicae, systemic via roots of pea seedlings; conditions: 144 h, test rate of 24 ppm, roots of pea seedlings in test solution, 6 days
Description: Roots of pea seedlings infested with an aphid population of mixed ages were placed directly in the aqueous test solutions prepared from 10,000 DMSO stock solutions. The samples were assessed for mortality 6 days after placing seedlings in test solutions.

CCS(=O)(=O)c1cc(-n2cc(C(F)(F)F)cn2)cnc1-c1nnc(-c2cc(C(F)(F)F)ccn2)n1C [Compound P6]
≥ 80%: percent effect (mortality or growth inhibition) at 200 ppm [1] | mortality at 200 ppm [2] | percent effect (mortality or growth inhibition) at 200 ppm [3] | mortality at 200 ppm [4] | percent control (mortality, anti-feedancy or growth inhibition) at 12.5 ppm [5] | mortality at 200 ppm [6] | percent effect (mortality or growth inhibition) at 200 ppm [7] | mortality at 200 ppm [8] | mortality at 200 ppm [9]

CCS(=O)(=O)c1cc(-n2cc(C#N)cn2)cnc1-c1nnc(-c2cc(C(F)(F)F)ccn2)n1C [Compound P14, 1-[5-ethylsulfonyl-6-[4-methyl-5-[4-(trifluoromethyl)-2-pyridyl]-1,2,4-triazol-3-yl]-3-pyridyl]pyrazole-4-carbonitrile]
≥ 80%: percent effect (mortality or growth inhibition) at 200 ppm [1] | mortality at 200 ppm [2] | percent effect (mortality or growth inhibition) at 200 ppm [3] | mortality at 24 ppm [10] | mortality at 200 ppm [4] | percent control (mortality, anti-feedancy or growth inhibition) at 12.5 ppm [5] | mortality at 200 ppm [6] | percent effect (mortality or growth inhibition) at 200 ppm [7] | mortality at 200 ppm [8] | mortality at 200 ppm [9]

CCS(=O)(=O)c1cc(-c2cc(C#N)ccn2)cnc1-c1nnc(-c2cc(C(F)(F)F)ccn2)n1C [Compound P23]
≥ 80%: percent effect (mortality or growth inhibition) at 200 ppm [1] | mortality at 200 ppm [2] | percent effect (mortality or growth inhibition) at 200 ppm [3] | mortality at 24 ppm [10] | percent control (mortality, anti-feedancy or growth inhibition) at 12.5 ppm [5] | mortality at 200 ppm [6] | percent effect (mortality or growth inhibition) at 200 ppm [7] | mortality at 200 ppm [8] | mortality at 200 ppm [9]

CCS(=O)(=O)c1cc(C2CC2)cnc1-c1nnc(-c2cc(C(F)(F)F)ccn2)n1C [Compound P29, 5-cyclopropyl-3-ethylsulfonyl-2-[4-methyl-5-[4-(trifluoromethyl)-2-pyridyl]-1,2,4-triazol-3-yl]pyridine]
≥ 80%: mortality at 200 ppm [2] | percent effect (mortality or growth inhibition) at 200 ppm [3] | mortality at 24 ppm [10] | percent control (mortality, anti-feedancy or growth inhibition) at 12.5 ppm [5] | mortality at 200 ppm [6] | percent effect (mortality or growth inhibition) at 200 ppm [7] | mortality at 200 ppm [9]

CCS(=O)(=O)c1ccc(-c2ccc(C(F)(F)F)cc2)nc1-c1nnc(-c2cc(C(F)(F)F)ccn2)n1C [Compound P32, 3-ethylsulfonyl-2-[4-methyl-5-[4-(trifluoromethyl)-2-pyridyl]-1,2,4-triazol-3-yl]-6-[4-(trifluoromethyl)phenyl]pyridine]
≥ 80%: mortality at 200 ppm [2] | percent effect (mortality or growth inhibition) at 200 ppm [3] | mortality at 200 ppm [4] | mortality at 200 ppm [6] | percent effect (mortality or growth inhibition) at 200 ppm [7]

CCS(=O)(=O)c1ccc(-n2cncn2)nc1-c1nnc(-c2cc(C(F)(F)F)ccn2)n1C [Compound P37]
≥ 80%: percent effect (mortality or growth inhibition) at 200 ppm [1] | mortality at 200 ppm [2] | percent effect (mortality or growth inhibition) at 200 ppm [3] | mortality at 24 ppm [10] | mortality at 200 ppm [4] | percent effect (mortality or growth inhibition) at 200 ppm [7] | mortality at 200 ppm [9]

CCS(=O)(=O)c1cc(-n2cnc(Cl)n2)cnc1-c1nnc(-c2cc(C(F)(F)F)ncn2)n1C [Compound P45]
≥ 80%: percent effect (mortality or growth inhibition) at 200 ppm [1] | mortality at 200 ppm [2] | percent effect (mortality or growth inhibition) at 200 ppm [3] | mortality at 24 ppm [10] | mortality at 200 ppm [4] | mortality at 200 ppm [6] | percent effect (mortality or growth inhibition) at 200 ppm [7] | mortality at 200 ppm [8] | mortality at 200 ppm [9]

CCS(=O)(=O)c1ccc(-n2cnc(Cl)n2)nc1-c1nnc(-c2cc(C(F)(F)F)ncn2)n1C [Compound P48, 4-[5-[6-(3-chloro-1,2,4-triazol-1-yl)-3-ethylsulfonyl-2-pyridyl]-4-methyl-1,2,4-triazol-3-yl]-6-(trifluoromethyl)pyrimidine]
≥ 80%: percent effect (mortality or growth inhibition) at 200 ppm [1] | mortality at 200 ppm [2] | percent effect (mortality or growth inhibition) at 200 ppm [3] | mortality at 200 ppm [4] | percent control (mortality, anti-feedancy or growth inhibition) at 12.5 ppm [5] | percent effect (mortality or growth inhibition) at 200 ppm [7] | mortality at 200 ppm [8] | mortality at 200 ppm [9]
